The test system of data set [1] is COX2. Nature of the data set: COX2 expression Western blot in human renal proximal tubule (HRPT) cells. The note with it: 0 to 30 mM, 12 hours. For orientation: Immunoblotting shows a protein as a band on a membrane.
Source text: These cells were then lysed with cell lysis buffer and analyzed by WB for COX2, total GSK3β and phospho GSK3β (Ser9 and Thr390) expression using anti-COX2 antibody (FIG. 7A, ABCAM®) and anti-phospho- and total GSK3β antibodies (FIG. 7B).
These cells were then lysed with cell lysis buffer and analyzed by WB for COX2, total GSK3β and phospho GSK3β (Ser^9) expressions using anti-COX2 antibody (FIG. 20A, Abcam®) and anti-phospho- and total GSK3β antibodies (FIG. 20B).
In data set [2] the test system is Murine neuronal stem cells. Nature of the data set: Murine neuronal stem cell differentiation (MAP2, total tau, phospho-synapsin I). It is filed as cell-based, mouse. The note with it: murine neuronal stem cells, 10 mM, 4 days, P>0.05. Here is the method:
FIGS. 6A-6F. […] These cells were then permeabilized, washed and stained with mouse anti-MAP2 monoclonal antibody (EMD Millipore) or mouse anti-total tau (tau46) antibody overnight at 4° C. […] Confocal images were taken by Olympus fluoview FV1000 laser scanning confocal microscope. […] DAPI staining (Life Technologies) was used to detect nuclear DNA. Confocal images were taken by Olympus Fluoview™ FV1000 laser scanning confocal microscope (FIG. 17A). […] The band density ratios of MAP2 to β-actin, total tau to β-actin, and phospho-synapsin I to β-actin are presented as mean±S.D (FIGS. 17B-1, 17B-2, and 17B-3, respectively).

Another data set relates to N2a cells. Briefly: Neuronal cell differentiation of N2a cells (β-tubulin III, phospho-synapsin I). It counts as cell-based, mouse. As to conditions: 10 mM, 24 hours, P>0.05. Here is the method:
FIGS. 5A-5C. […] These cells were then permeabilized with 0.05% Triton X-100 for 5 minutes, washed and stained with mouse anti-β-tubulin III monoclonal antibody ([…]™) and rabbit anti-phospho-Synapsin I (Ser^62, Ser^67) polyclonal antibody (EMD Millipore) overnight at 4° C. […] Confocal images were taken by Olympus fluoview FV1000 laser scanning confocal microscope (Tokyo, Japan).
These cells were then permeabilized with 0.05% Triton X-100 for 5 min, washed, and stained with mouse anti-β-tubulin III monoclonal antibody ([…]™) and rabbit anti-phospho-synapsin I (Ser^62, Ser^67) polyclonal antibody (EMD Millipore) overnight at 4° C. […] Confocal images were taken by Olympus Fluoview™ FV1000 laser scanning confocal microscope (Tokyo, Japan) (FIG. 5A).

Data set [3] relates to Human neural stem cells (H9-Derived). Briefly: Human neuronal stem cell differentiation (MAP2, GFAP). It counts as cell-based. As to conditions: human neural stem cells, 10 mM, 14 days, P>0.05. From the text:
Human neural stem cells (H9-Derived) were obtained from Life technologies and cultured with StemPro® NSC SFM media. […] DAPI was used to detect nuclear DNA. Confocal images were taken by Olympus Fluoview™ FV1000 laser scanning confocal microscope (FIG. 18A).

Data set [4] relates to GSK3β. Nature of the data set: GSK3β phosphorylation Western blot in human renal proximal tubule (HRPT) cells. It is filed as cell-based. The note with it: 0 to 30 mM, 12 hours.
For data set [5], the system named is Mouse primary microglial cells. Briefly: Autophagy (LC3B staining) in mouse primary microglial cells. It is filed as cell-based. The note with it: 10 mM, 18 hours; for autophagy (LC3B fluorescence intensity of autophagosomes and cytosol): vs PBS control. From the text:
FIG. 8. […] The fluorescence intensity of the autophagosomes and the cytosol were quantified using SLIDEBOOK™ digital microscopy software.
The fluorescence intensity of the autophagosomes and the cytosol were quantified using Slidebook™ digital microscopy software (mean±SD) (FIG. 19).

The conditions of data set [6]: C57BL/6J mice, diet 1 or 2 weeks, lithium 1.125 or 2.25 mmol/kg/day. Here is the method:
All mice received normal drinking water ad libitum. Statistical analysis was carried out following ANOVA analysis.

The subject of data set [7] is COX2. The note with it: Tg2576 mice, diet 8 weeks, lithium 2.25 mmol/kg/day.
The subject of data set [8] is β-amyloid pathology in Tg2576 mice. The note with it: diet 8 weeks, lithium 2.25 mmol/kg/day, Li2CO3 vs control NIH31 diet. On the procedure:
All mice received normal drinking water ad libitum. […] Mouse brain tissue sections and homogenates were prepared from each mouse after treatment. Half-brain coronal sections were analyzed by Aβ antibody 4G8 staining (FIG. 14A). Percentage of 4G8 positive plaques (mean±SD) was quantified by image analysis (28, 29) (FIG. 14B). Total soluble and insoluble Aβ40,42 peptides from homogenates were analyzed by ELISA, and represented as picograms of Aβ peptides per mg of total protein (FIG. 14C).

Data set [9] deals with GSK3β. The note with it: Tg2576 mice, diet 8 weeks, 2.25 mmol/kg/day; LISPRO vs Li2CO3-treated, Li2CO3 vs control NIH31 diet. From the text:
(§1) Inhibitory phosphorylation status of GSK3β was detected by anti-phospho-GSK3β (Ser^9) [pGSK3β (Ser^9)] antibody.

The next data set concerns tau. As to conditions: Tg2576 mice, diet 8 weeks, 2.25 mmol/kg/day; LISPRO vs Li2CO3-treated, Li2CO3 vs control NIH31 diet.
Source text: as §1

The conditions of data set [10]: rats, 4 mEq/kg lithium, oral gavage.
A further data set has as its system cytokines and sCD40L. The note with it: Tg2576 mice, diet 8 weeks, 2.25 mmol/kg/day, vs control NIH31 diet. The text has this:
In addition, spleens from these mice were isolated and splenocytes cultured as described previously (30).

Data set [11] concerns COX2. The note with it: C57BL/6J male mice, diet 1 or 2 weeks, lithium 1.125 and 2.25 mmol/kg/day. The text has this:
All mice received normal drinking water ad libitum. Kidneys were collected after treatment and analyzed by immunohistochemistry for COX2 expression in the renal medulla (FIG. 21A). In addition, the kidney microsomal proteins were extracted to assess COX2 expression by WB (FIGS. 21B-1, 21B-2). Data are expressed as mean±SD in duplicates from six mice in each group (FIG. 21B-3).

As for `O=C(O)[C@@H]1CCCN1` [L-proline], the “COX2 expression (WB)” value in the data set with COX2 [1] is “no change”. Besides, the “difference in MAP2, phospho-synapsin I and total tau immunofluorescence and WB between Li2CO3, LiCl and L-proline” value in data set [2] is on record as “no significance difference”. The “difference in β-tubulin III and phospho-synapsin I immunofluorescence and WB between Li2CO3, LiCl and L-proline” value in the data set with N2a cells is “no notable or significant difference”. Further, the “difference in MAP2 and GFAP immunofluorescence and WB between Li2CO3, LiCl and L-proline” value in data set [3] is given as “no significance difference”. Moreover, in the data set on GSK3β [4], the “GSK3β activity / GSK3β (Ser9) phosphorylation (WB)” value is “no change”. In addition, in [5], the “autophagy (LC3B fluorescence intensity of autophagosomes and cytosol)” value is recorded as “failed to promote any notable autophagy”.

For the compound `O=C([O-])[O-].[Li+].[Li+]` [Li2CO3, lithium carbonate], in data set [6], the “difference in lithium levels in serum and brain homogenate between Li2CO3- and lithium salicylate-treated mice” value is “no significant difference”. For the same compound, the “kidney (renal) COX2 expression versus control mice” value in the data set with COX2 [7] is on record as “enhanced”. The “difference in COX2 expression between Li2CO3 and LiCl” value in the data set with COX2 [1] is reported as “no notable differences”. Also, in data set [2], the “difference in MAP2, phospho-synapsin I and total tau immunofluorescence and WB between Li2CO3, LiCl and L-proline” value was “no significance difference”. Also, in the data set with N2a cells, the “difference in β-tubulin III and phospho-synapsin I immunofluorescence and WB between Li2CO3, LiCl and L-proline” value is “no notable or significant difference”. For the same compound, the “difference in MAP2 and GFAP immunofluorescence and WB between Li2CO3, LiCl and L-proline” value in [3] was “no significance difference”. The “difference in GSK3β phosphorylation between Li2CO3 and LiCl” value with GSK3β [4] is on record as “no notable differences”. Besides, the “autophagy (LC3B fluorescence intensity of autophagosomes and cytosol)” value in [5] is on record as “significant enhancement of autophagy”. Also, the “β-amyloid pathology (4G8 positive Aβ plaques in brain sections)” value in data set [8] is “no notable or significant difference”. In addition, the “ratio of pGSK3β (Ser9) to total GSK3β in brain homogenates” value in the data set on GSK3β [9] is “no notable and significant difference”. The “ratio of p-tau (Thr231) to total tau in brain homogenates” value with tau is “no notable and significant difference”. For the same compound, in data set [10], the “brain lithium level profile” value is reported as “spike in brain lithium levels at 24 hours”; the “plasma lithium level at 48 hours” value was “nearly undetectable”; the “plasma lithium pharmacokinetic profile” value was “sharp peak and rapid elimination”. Also, the “cytokine levels in plasma and splenocyte cultured media” value in the data set on cytokines and sCD40L is reported as “no notable or significant difference”.

`[Cl-].[Li+]` [LiCl]: the “difference in COX2 expression between Li2CO3 and LiCl” value with COX2 [1] is listed as “no notable differences”. In addition, the “difference in MAP2, phospho-synapsin I and total tau immunofluorescence and WB between Li2CO3, LiCl and L-proline” value in [2] was “no significance difference”. Further, the “difference in β-tubulin III and phospho-synapsin I immunofluorescence and WB between Li2CO3, LiCl and L-proline” value in the data set with N2a cells is recorded as “no notable or significant difference”. Also, in data set [3], the “difference in MAP2 and GFAP immunofluorescence and WB between Li2CO3, LiCl and L-proline” value is “no significance difference”. Also, the “difference in GSK3β phosphorylation between Li2CO3 and LiCl” value in the data set on GSK3β [4] is “no notable differences”. Further, the “difference in fluorescence intensity of autophagosomes and cytosol versus Li2CO3” value in [5] (P>0.05) was “no significance difference”.

In the case of `O=C([O-])c1ccccc1O.[Li+]` [lithium salicylate], in data set [6], the “difference in lithium levels in serum and brain homogenate between Li2CO3- and lithium salicylate-treated mice” value was “no significant difference”. In the data set on COX2 [11], the “kidney microsomal COX2 expression levels versus control NIH31 diet” value is “no significant difference”.

For the origin of these results see patent publication US9603869B2, “Lithium co-crystals and an additional neuropsychiatric agent for treatment of neuropsychiatric disorders” (UNIVERSITY OF SOUTH FLORIDA, priority 2015, dated 2017).
